In patent US11503826B2, “Low volatility auxin herbicide formulations” (priority 2009, dated 2022):
Where two headings read alike, the source gives them in different places.

How the values were obtained:
[1] = 5% a.e. DMA Dicamba solution
[2] = 20° C.; 'is believed to have'; cited from earlier work
[3] = tested on: eyes of rabbit
Procedure: Eye irritation measurement can be done according to the methods provided in U.S. Environmental Protection Agency Office of Prevention, Pesticides and Toxic Substances, Health Effects Test Guidelines (for example, OPPTS 870.2400 Acute Eye Irritation, August 1998).
The eye irritation potential of an aqueous formulation of the present invention was evaluated. […] Eye irritation testing was done according to the methods provided in U.S. Environmental Protection Agency Office of Prevention, Pesticides and Toxic Substances, Health Effects Test Guidelines: OPPTS 870.2400 Acute Eye Irritation. The eyes of 3 rabbit animals were treated with the formulation and were scored for effects on the cornea, iris, and conjunctivae (redness, swelling and discharge).

[4] = assay type: physicochemical; conditions: 38.5 wt % a.e. solutions (Table 4i)
Procedure: In a further set of experiments, measurements of dicamba concentration in the gas phase (air) above 38.5 wt % a.e. solutions of various dicamba salts was measured. 5 mL of each sample of dicamba was placed into a 50 mL plastic centrifuge tube with four holes approximately ⅛ in diameter drilled into the tube at the 10 mL line. A 22 mm×30 mm PUF (SKC ct. #226-124) was placed into a glass tube of app. 20 mm diameter with parafilm wrapped around the outside to obtain a snug fit into the top of the centrifuge tube. A hose was connected to the other end of the glass tube leading to a vacuum line. The air flow was regulated to app. 2 L/min using a flow controller (about 0.4 L air/min-mL sample). Air was pulled through the tube at […] for approximately 1 day. Note that the air conditions of flow rate, temperature, pressure and composition (e.g., relative humidity) are not narrowly critical as long as the various samples are analyzed under similar conditions. For instance, air at from about 5° C. to about 40° C., from about 0.5 to about 1.5 bar pressure, from about 0% to about 95% relative humidity, and at a flow rate of from about 0.1 to 10 L/min-mL sample could be suitably used for volatility analysis. The PUF was removed from the glass tube, extracted with 20 mL methanol and the resulting solution analyzed for dicamba concentration by LC-MS. The results are shown in Table 4i below where “wt % a.e.” refers to the dicamba concentration, “μg/mL” refers to the dicamba concentration in the distillate, “μg dicamba” refers to the total dicamba extracted from the PUF by 20 mL methanol, and “ng/L air” and “moles/L air” refer to the dicamba concentration in the gas phase above the solution.

[5] = Aqueous solubility of dicamba acid and dicamba salts
Source text: The solution was then passed through a 0.45 micron filter and assayed by HPLC for soluble dicamba.

Row | Compound | pH Solution After Distillation ([1]; starting solution pH 3.60) | ppm DMA in Distillate ([1]; starting solution pH 3.60) | pH Solution After Distillation ([1]; starting solution pH 8.20) | ppm DMA in Distillate ([1]; starting solution pH 8.20) [ppm] | pH Solution After Distillation ([1]; starting solution pH 10.10) | ppm DMA in Distillate ([1]; starting solution pH 10.10) [ppm] | amine in the distillate by HPLC analysis ([1]; acidic pH (3.6)) | solubility g a.e./L [2] [g a.e./L] | solubility wt % a.e. [2] | time after treatment at which all eyes were free of positive scores ([3]; 61 wt % a.e., pH 8.5) [days] | time by which all eyes were free of all irritation ([3]; 61 wt % a.e., pH 8.5) [days] | eye irritation rating in words ([3]; Example 16: 61 wt % a.e. aqueous MEA dicamba, pH 8.5, 3 rabbits, b51: concentrate formulations at pH about 8) | ocular findings in all treated eyes ([3]; within 24 hours after treatment, 61 wt % a.e., pH 8.5) | dicamba concentration in the gas phase above the solution, comparison [4] | gas concentration, times less than the commercial product BANVEL [4] [times] | aqueous solubility wt % a.e. @20° C. ([5]; Table 10b, second experiment, dicamba acid and salts, 20° C.) [wt % a.e.] | aqueous solubility wt % a.i. @20° C. ([5]; Table 10b, second experiment, dicamba salts, 20° C.) [wt % a.i.] | crystal formation from concentrated salt solution ([5]; solubility experiment, Example 10)
1 | CNC.COc1c(Cl)ccc(Cl)c1C(=O)O [Dicamba DMA salt] | 3.58 | Undetectable | 7.04 | 400 | 6.4 | 5000 | no detectable amine | ~600 | about 45 wt % a.e. |  |  |  |  |  |  |  |  | 
2 | COc1c(Cl)ccc(Cl)c1C(=O)O.NCCO [Dicamba MEA salt] |  |  |  |  |  |  |  |  |  | 7 | ≤ 10 | moderately irritating | corneal opacity, iritis and conjunctivitis | lower than the acid or the sodium, potassium and DMA salts | ~20 | 66.1 | 84.4 | did not form crystals
